Test results reported in patent publication US7547440B2, “T-cell epitope peptides” (Meiji Dairies Corporation, priority 1996, dated 2009).

System: T-cell line stimulated by Cha o 2 from patients with Japanese cypress pollinosis
Assay: Growth response ([3H]thymidine uptake) of Cha o 2-stimulated T-cell lines to overlapping peptides
Assay type: cell-based, human
Details: Cha o 2 overlapping peptides, final concentration 1 μM; T-cell lines from 20 patients; FIG. 5, FIG. 8
Excerpt: To obtain the T-cell epitope peptides of the present invention, overlapping peptides that cover the entire primary structures of Cha o 1 and Cha o 2 were synthesized; each peptide consists of the adequate number of amino acid residues (12 to 20 residues). The peptide of the present invention stimulates and/or suppresses the activity of T cells derived from patients with pollinosis caused by tree pollens in springtime. In other words, the peptide of the present invention can induce proliferation of T cells or responses of T cells such as secretion of lymphokines, and/or can induce T-cell anergy (non-responsiveness). T-cell epitope sites on the allergen molecules can be identified using T-cell growth as an index in accordance with the method described in JP-A-Hei 8-47392. In particular, T-cell lines or T-cell clones, which are specifically reactive with Cha o 1 and Cha o 2, are established for every patient from peripheral lymphocytes of a patient with Japanese cypress pollinosis. The T-cell lines or T-cell clones are cultured in the presence of each peptide of the overlapping peptides. The epitope sites are identified by measuring the proliferation of T cells in the presence of the peptide (e.g., uptake of [^3H]thymidine into the cells) and calculating a stimulation index. […] Based on the data obtained thus, a mean stimulation index for each peptide is calculated for each patient group. […]

## 2-14: overlapping peptide of Japanese cypress pollen allergen Cha o 2, 20 residues (ARWKNSKIWLQFAQLTDFNL)
  T-cell stimulating activity (contains at least one T-cell epitope): possess a T-cell stimulating activity
